Assay type in all cases: in vivo
Data set [1] concerns Aedes aegypti 3rd-4th instar larvae. The experiment in a line: Efficacy and residual activity of photolarvicidal formulations. The conditions noted are these: for % mortality by incubation time: 12 h irradiation. Here is the method: To assess the effect of different C14 loading concentrations on the photolarvicidal activity of the C14-PFP complexes, two photolarvicidal formulates were prepared. The formulates, named C14 PF-5 and C14 PF-50, were obtained by incubating overnight at room temperature under gentle shaking 25 mg of PFP in 500 ml of 5 μM and 50 μM aqueous solutions of C14, respectively. The solutions were filtered using Whatman qualitative filter papers (Whatman International Ltd., UK) and the solid residues, consisting in the C14-PFP complexes, were washed with 10 ml distilled water, oven-dried at 37° C. for 4 hours and stored at room temperature until use. To quantify the amount of bound C14, samples of the two C14-PFP formulates were dissolved in 3 ml of 2% SDS for 2 h under gentle magnetic stirring. The extracted porphyrin was then quantified by spectrophotometric analysis as described above.
(§1) All the experiments were carried out in a climatic chamber at 28±2° C. with a regulated photoperiod of 12 hours. Transparent plastic trays, containing 500 ml C14 solutions or spring water were employed. Typically, 5±1 days old, 3rd-early 4th instar Aedes aegypti larvae were used. All the experiments were replicated three times.
Five series of trays were prepared, namely 0.3 μM and 5 μM C14 porphyrin solutions containing 6 mg PFP (wherein PFP means powdered food pellet (PFP) with final particle diameter of 5-500 μm diameter obtained by crushing a standard food pellet for laboratory rodents, namely 4RF18 GLP (Mucedola Srl, Italy) using an electric blender and then sieving at mesh diameter 500 μm); spring water containing 6 mg C14 PF-5 or C14 PF-50 formulate (wherein C14 PF-5 and C14 PF-50, were obtained by incubating overnight at room temperature under gentle shaking 25 mg of PFP in 500 ml of 5 μM and 50 μM aqueous solutions of C14, respectively) and spring water containing 6 mg PFP as a control. Each series was arranged into three groups, which were incubated at a 12 hour photoperiod for 48 hours, one, or two weeks, respectively. At the end of the incubation periods, batches of 100 larvae, having fasted for 24 hours, were introduced into the trays, at 8 pm (beginning of the 12 h-long dark period in the climatic chamber). Larval mortality was evaluated after 12 hours (next day at 8.00 pm) of irradiation.

Data set [2] concerns 3rd-4th instar Ae. aegypti larvae. Briefly: Larvicidal efficacy of C14 porphyrin (LC50). The conditions noted are these: 6 mg PFP. Here is the method: Irradiation of mosquito larvae were performed by employing full spectrum visible light (400-800 nm) at a fluence rate of 1.0 to 4.0 mW/cm^2 using low-pressure mercury discharge fluorescent tubes TL-D Standard Colours (TL-D 58W/33-640 1SL, PHILIPS, EC). The intensity of the incident radiation was measured by an ILT1400A radiometer/photometer, equipped with a SED623/HNK15 multi-junction thermopile detector (International Light Technologies Inc., MA, USA).
as §1
Mortality data were analyzed by ANOVA and LSD post-hoc tests using SPSS v. 11.0 (SPSS Inc.). LC50 values and relevant statistics were obtained by nonlinear regression of mortality data, using OriginPro v. 7.5 (OriginLab Corp.).
Trays containing C14 porphyrin solutions at 7 increasing concentrations (range 0.03-4.3 μM), or spring water as a control, were provided with 6 mg of PFP each (wherein PFP means powdered food pellet (PFP) with final particle diameter of 5-500 μm diameter obtained by crushing a standard food pellet for laboratory rodents, namely 4RF18 GLP (Mucedola Srl, Italy) using an electric blender and then sieving at mesh diameter 500 μm) and then incubated in the dark for 48 hours. Batches of 100 larvae, fasted for the previous 24 hours, were introduced into the trays at 8.00 pm (beginning of the 12 hour-long dark period in the climatic chamber). Larval mortality was evaluated on the next day at 9 am (after 1 hour irradiation), 2 pm (6 hours irradiation) and 8 pm (12 hours irradiation). An additional mortality evaluation was performed on the following day at 8.00 am, after a further overnight incubation. Larvae not moving or not showing a normally vigorous escaping response at probing were defined as dead or dying, respectively, and counted together. Pupae occasionally formed during the experiment, which never exceeded 10% of the total number of larvae, were discarded and excluded from the evaluation.
C14 solutions were incubated with 6 mg PFP at 28±2° C. in the dark for 48 hours. Larvae (3rd-4th instar, n=100, 3 replicates) were introduced 12 hours before the start of the irradiation (fluence rate: 1.0-4.0 mW/cm^2).

The subject of data set [3] is A. aegypti larvae. The experiment in a line: Larvicidal efficacy of C14 porphyrin-loaded PFP. The conditions noted are these: 3 hours irradiation. Here is the method:
Food particles (70 mg) were added at the time of introduction of the larvae (n=50, see methods for details). Arithmetic means of percent dead, dying and living larvae after 3 hours irradiation (intensity 1.0-4.0 mW/cm^2). Error bars represent standard deviations, (n=3 replicates of 50 larvae each).
Trays containing 5 μM C14 porphyrin solution and 70 mg PFP (wherein PFP means powdered food pellet (PFP) with final particle diameter of 5-500 μm diameter obtained by crushing a standard food pellet for laboratory rodents, namely 4RF18 GLP (Mucedola Srl, Italy) using an electric blender and then sieving at mesh diameter 500 μm) were incubated at 28±2° C. for 5 days in the dark. The solution was then filtered using Whatman qualitative filter papers (Whatman International Ltd., UK). The eluted C14 solution was conserved, and the incubated PFP retained on the filter paper was washed with 10 ml distilled water before further use. Experimental groups were designed as follows: 1) filtered, C14-incubated PFP in spring water (group A); 2) C14 solution eluate, added with 70 mg fresh PFP (group B); 3) 5 μM C14 solution incubated without PFP for 5 days in the dark, added with 70 mg fresh PFP (group C); 4) freshly prepared 5 μM C14 solution, added with 70 mg PFP (group D); 5) spring water added with 70 mg fresh PFP (control group). Fifty larvae, fasted for 24 hours, were added to each tray and incubated in the dark for 12 hours. The treated or untreated PFP was added at the time of introduction of the larvae, in all the experimental groups. The trays were then exposed to a light intensity of 1.0-4.0 mW/cm^2 and dead, dying and living larvae were counted 1 to 3 hours after the beginning of the irradiation.

Setting [4] is: group B: C14 solution eluate with 70 mg fresh PFP.

By LC50 is commonly meant the concentration lethal to half of the exposed cells or organisms. In general, mortality refers to the percentage killed.

Take `CCCCCCCCCCCCCC[n+]1ccc(-c2c3nc(c(-c4cc[n+](C)cc4)c4ccc([nH]4)c(-c4cc[n+](C)cc4)c4nc(c(-c5cc[n+](C)cc5)c5ccc2[nH]5)C=C4)C=C3)cc1.Cc1ccc(S(=O)(=O)[O-])cc1.Cc1ccc(S(=O)(=O)[O-])cc1.Cc1ccc(S(=O)(=O)[O-])cc1.Cc1ccc(S(=O)(=O)[O-])cc1` [C14, meso-tri(N-methyl-pyridyl), mono(N-tetradecyl-pyridyl)porphine]: the “% mortality by incubation time” value in data set [1] (0.3 μM C14 solution with 6 mg untreated larval food, trays incubated 1 week) came out at 100%; in data set [1] (0.3 μM C14 solution with 6 mg untreated larval food, trays incubated 2 weeks) it was 0%; in data set [1] (0.3 μM C14 solution with 6 mg untreated larval food, trays incubated 48 hours) it was 100%; in data set [1] (5 μM C14 solution with 6 mg untreated larval food, trays incubated 1 week) it was 100%; in data set [1] (5 μM C14 solution with 6 mg untreated larval food, trays incubated 2 weeks), 100%; in data set [1] (5 μM C14 solution with 6 mg untreated larval food, trays incubated 48 hours) it was 100%. The values for the residual activity in data set [1] (0.3 μM solutions in water containing 6 mg untreated PFP) and in data set [1] (5 μM solutions in water containing 6 mg untreated PFP) were 1 week and “two weeks”, respectively. Further, the LC50 in data set [2] (12 light + 12 dark hours) came out at 0.11 µM; in data set [2] (1 hour of irradiation, 1.0-4.0 mW/cm^2), 0.46 µM; in data set [2] (6 hours of irradiation, 1.0-4.0 mW/cm^2) it was 0.25 µM; in data set [2] (12 hours of irradiation, 1.0-4.0 mW/cm^2), 0.22 µM. In addition, the dying larvae in data set [3] (setting [4]) is listed as 49.8%. The mortality in data set [3] (setting [4]) is listed as 38.4%; in data set [3] (group C: 5 μM C14 solution incubated 5 days in the dark without PFP, fresh PFP added) it was 78.2%; in data set [3] (group D: freshly prepared 5 μM C14 solution with 70 mg PFP), 87.1%.

For the origin of these results see patent publication US20130296370A1, “COMPOSITION COMPRISING A PHOTOACTIVATABLE LARVICIDE” (UNIVERSITA DEGLI STUDI DI PADOVA, priority 2010, published 2013).
